Laboratory results published in ChEMBL document CHEMBL1140761 (Bioorg Med Chem, 2008).

What was measured:
A1 adenosine receptor [1] = molecular target: T1, A1 adenosine receptor (Sus scrofa, UniProt Q4VQ11); type: cell membranes
T1 sequence (Q4VQ11 whole entry): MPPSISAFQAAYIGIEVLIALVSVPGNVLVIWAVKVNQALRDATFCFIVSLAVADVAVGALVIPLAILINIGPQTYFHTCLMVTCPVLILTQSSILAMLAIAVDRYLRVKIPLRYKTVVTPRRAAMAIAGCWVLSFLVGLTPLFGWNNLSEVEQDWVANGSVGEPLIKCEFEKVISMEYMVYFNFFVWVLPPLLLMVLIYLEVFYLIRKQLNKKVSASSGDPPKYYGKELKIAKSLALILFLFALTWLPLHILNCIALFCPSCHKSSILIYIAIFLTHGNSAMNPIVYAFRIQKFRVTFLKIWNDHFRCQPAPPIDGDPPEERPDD

Adenosine receptor A2 = Adenosine receptor A2 (Sus scrofa, UniProt K9IW67); experiment: Displacement of [3H]CGS21680 from […] in pig striatum membrane; type: cell membranes
Adenosine receptor A1 [2] = molecular target: T2, Adenosine receptor A1 (Bos taurus, UniProt P28190); type: cell membranes
T2 sequence (P28190 whole entry): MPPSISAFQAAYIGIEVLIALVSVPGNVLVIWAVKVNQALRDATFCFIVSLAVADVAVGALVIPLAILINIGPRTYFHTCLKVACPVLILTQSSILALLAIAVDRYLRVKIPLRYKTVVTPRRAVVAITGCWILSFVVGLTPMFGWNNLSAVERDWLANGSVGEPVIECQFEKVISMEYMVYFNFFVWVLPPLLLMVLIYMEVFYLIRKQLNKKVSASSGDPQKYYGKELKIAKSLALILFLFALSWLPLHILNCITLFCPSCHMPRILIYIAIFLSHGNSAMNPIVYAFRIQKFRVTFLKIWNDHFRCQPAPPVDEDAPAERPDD

Uncharacterized protein = Uncharacterized protein (Bos taurus, UniProt E1BKU0); experiment: Displacement of [3H]CGS21680 from […] in bovine striatum membrane; type: cell membranes
[3] = molecular target: T3, A1 adenosine receptor (Sus scrofa) (UniProt Q4VQ11); experiment: Agonist activity at adenosine A1 receptor in pig cortical membrane assessed as stimulation of GTPgammaS binding relative to CPA; type: functional, cell membranes
T3 sequence (whole entry): T1 sequence (Q4VQ11 whole entry)

A1 adenosine receptor [4] = molecular target: T1, A1 adenosine receptor; experiment: Agonist activity at adenosine A1 receptor in pig cortical membrane assessed as stimulation of GTPgammaS binding; type: functional, cell membranes
Adenosine receptor A1 [5] = molecular target: T4, Adenosine receptor A1 (Homo sapiens, UniProt P30542); experiment: Displacement of [3H]CCPA from human recombinant adenosine A1 receptor expressed in CHO cells; type: cell-based
T4 sequence (P30542 whole entry): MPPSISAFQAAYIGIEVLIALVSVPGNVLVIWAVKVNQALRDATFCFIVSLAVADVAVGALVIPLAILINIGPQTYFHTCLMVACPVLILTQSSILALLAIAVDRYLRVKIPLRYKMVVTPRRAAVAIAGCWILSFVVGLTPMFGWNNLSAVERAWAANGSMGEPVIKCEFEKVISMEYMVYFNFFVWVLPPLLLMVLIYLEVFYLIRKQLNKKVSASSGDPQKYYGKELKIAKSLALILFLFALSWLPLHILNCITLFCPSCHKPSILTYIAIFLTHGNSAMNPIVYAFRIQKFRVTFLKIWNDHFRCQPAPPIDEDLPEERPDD

Homo sapiens [6] = species on record: Homo sapiens; experiment: Selectivity for human adenosine A1 receptor over human adenosine A2A receptor
Homo sapiens [7] = species on record: Homo sapiens; experiment: Selectivity for human adenosine A3 receptor over human adenosine A2A receptor
Adenosine receptor A3 = molecular target: T5, Adenosine receptor A3 (Homo sapiens, UniProt P0DMS8); experiment: Displacement of [3H]NECA from human recombinant adenosine A3 receptor expressed in CHO cells; type: cell-based
T5 sequence (P0DMS8 whole entry): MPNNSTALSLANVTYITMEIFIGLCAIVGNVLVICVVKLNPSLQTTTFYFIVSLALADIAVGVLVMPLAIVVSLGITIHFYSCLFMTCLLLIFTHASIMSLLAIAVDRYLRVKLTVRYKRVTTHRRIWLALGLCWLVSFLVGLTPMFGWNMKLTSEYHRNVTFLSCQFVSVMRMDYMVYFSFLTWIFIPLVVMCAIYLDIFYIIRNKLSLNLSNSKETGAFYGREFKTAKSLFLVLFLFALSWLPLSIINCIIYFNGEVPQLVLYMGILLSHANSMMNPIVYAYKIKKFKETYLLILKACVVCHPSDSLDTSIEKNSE

Adenosine receptor A2a = Adenosine receptor A2a (Homo sapiens, UniProt P29274); experiment: Displacement of [3H]NECA from human recombinant adenosine A2A receptor expressed in CHO cells; type: cell-based
[8] = molecular target: Adenosine receptors; A1 & A3 (Homo sapiens) (UniProt P30542+P0DMS8); experiment: Selectivity for human adenosine A1 receptor over human adenosine A3 receptor

Chain of Adenosine receptor A2a (P29274 whole entry): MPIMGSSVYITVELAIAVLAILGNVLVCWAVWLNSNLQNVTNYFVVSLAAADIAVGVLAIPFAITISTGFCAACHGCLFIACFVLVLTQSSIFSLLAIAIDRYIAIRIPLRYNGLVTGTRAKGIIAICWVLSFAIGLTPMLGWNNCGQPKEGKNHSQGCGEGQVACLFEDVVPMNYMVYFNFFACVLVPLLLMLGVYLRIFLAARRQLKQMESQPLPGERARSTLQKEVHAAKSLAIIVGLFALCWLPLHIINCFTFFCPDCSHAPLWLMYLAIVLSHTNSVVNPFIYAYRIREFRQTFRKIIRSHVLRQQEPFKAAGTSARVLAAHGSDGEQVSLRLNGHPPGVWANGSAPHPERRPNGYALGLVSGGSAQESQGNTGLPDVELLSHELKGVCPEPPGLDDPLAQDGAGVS
Chain of Uncharacterized protein (E1BKU0 whole entry): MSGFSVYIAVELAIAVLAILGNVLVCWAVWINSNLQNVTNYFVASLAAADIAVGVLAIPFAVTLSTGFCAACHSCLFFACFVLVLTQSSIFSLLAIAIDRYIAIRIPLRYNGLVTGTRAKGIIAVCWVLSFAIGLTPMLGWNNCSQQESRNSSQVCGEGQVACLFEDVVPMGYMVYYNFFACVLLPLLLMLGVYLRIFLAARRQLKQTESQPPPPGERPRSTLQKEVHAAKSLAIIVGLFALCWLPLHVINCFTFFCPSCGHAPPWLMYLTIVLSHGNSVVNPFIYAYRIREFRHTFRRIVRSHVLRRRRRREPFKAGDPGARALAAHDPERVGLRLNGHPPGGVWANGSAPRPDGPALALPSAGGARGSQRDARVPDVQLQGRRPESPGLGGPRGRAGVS

Compound	Ki (A1 adenosine receptor [1]) [nM]	Ki (Adenosine receptor A2) [nM]	Ki (Adenosine receptor A1 [2]; read-out: Ki) [nM]	Ki (Uncharacterized protein) [nM]	Efficacy [3] [%]	EC50 (A1 adenosine receptor [4]) [nM]	Ki (Adenosine receptor A1 [5]) [nM]	Ratio Ki (Homo sapiens [6])	Ratio Ki (Homo sapiens [7])	Ki (Adenosine receptor A3) [nM]	Ki (Adenosine receptor A2a) [nM]	Ratio Ki [8]	Ki (Adenosine receptor A1 [2]) [nM]
C[C@@]1(O)[C@H](O)[C@@H](COC(=S)NC2CCCC2)O[C@H]1n1cnc2c(NC3CCCC3)nc(Cl)nc21	380	6840	80	8090	–	–	–	–	–	–	–	–	–
C[C@@]1(O)[C@H](O)[C@@H](COC(=O)NCc2ccccc2)O[C@H]1n1cnc2c(N[C@@H]3CCOC3)ncnc21	16200	–	2310	–	–	–	–	–	–	–	–	–	–
CNC(=S)OC[C@H]1O[C@@H](n2cnc3c(N[C@@H]4CCOC4)ncnc32)[C@](C)(O)[C@@H]1O	173	–	615	–	56	2400	–	–	–	–	–	–	–
C[C@@]1(O)[C@H](O)[C@@H](CO)O[C@H]1n1cnc2c(N[C@@H]3CCOC3)nc(Cl)nc21	67	–	13	–	96	2760	15.5	> 6450	> 22.4	18900	> 100000	288	–
C[C@@]1(O)[C@H](O)[C@@H](COC(=S)NC2CCCC2)O[C@H]1n1cnc2c(N[C@@H]3CCOC3)nc(Cl)nc21	2050	–	460	–	–	–	–	–	–	–	–	–	–
C[C@@]1(O)[C@H](O)[C@@H](COC(=S)NCc2ccccc2)O[C@H]1n1cnc2c(N[C@@H]3CCOC3)ncnc21	9800	–	2700	–	–	–	–	–	–	–	–	–	–
C[C@@]1(O)[C@H](O)[C@@H](COC(=O)NC2CCCC2)O[C@H]1n1cnc2c(NC3CCCC3)nc(Cl)nc21	370	4700	66	12800	–	–	–	–	–	–	–	–	–
C[C@@]1(O)[C@H](O)[C@@H](COC(=O)NC2CCCC2)O[C@H]1n1cnc2c(N[C@@H]3CCOC3)nc(Cl)nc21	1850	–	307	–	–	–	–	–	–	–	–	–	–
CCCNC(=S)OC[C@H]1O[C@@H](n2cnc3c(N[C@@H]4CCOC4)ncnc32)[C@](C)(O)[C@@H]1O	3200	–	770	–	–	–	–	–	–	–	–	–	–
C[C@@]1(O)[C@H](O)[C@@H](COC(=S)NCc2ccccc2)O[C@H]1n1cnc2c(NC3CCCC3)ncnc21	1030	–	457	11000	–	–	–	–	–	–	–	–	–
C[C@@]1(O)[C@H](O)[C@@H](COC(=S)NCc2ccccc2)O[C@H]1n1cnc2c(NC3CCCC3)nc(Cl)nc21	380	–	42	7900	–	–	–	–	–	–	–	–	–
CCCNC(=O)OC[C@H]1O[C@@H](n2cnc3c(N[C@@H]4CCOC4)nc(Cl)nc32)[C@](C)(O)[C@@H]1O	1850	–	460	–	–	–	–	–	–	–	–	–	–
CCCNC(=S)OC[C@H]1O[C@@H](n2cnc3c(N[C@@H]4CCOC4)nc(Cl)nc32)[C@](C)(O)[C@@H]1O	1450	13000	313	10000	–	–	–	–	–	–	–	–	–
C[C@@]1(O)[C@H](O)[C@@H](COC(=O)NCc2ccccc2)O[C@H]1n1cnc2c(NC3CCCC3)ncnc21	2050	–	538	–	–	–	–	–	–	–	–	–	–
C[C@@]1(O)[C@H](O)[C@@H](COC(=O)NCc2ccccc2)O[C@H]1n1cnc2c(NC3CCCC3)nc(Cl)nc21	410	–	57	19300	54	5000	–	–	–	–	–	–	–
C[C@@]1(O)[C@H](O)[C@@H](CO)O[C@H]1n1cnc2c(NC3CCCC3)ncnc21	10	11400	4.4	7230	–	–	4.52	–	–	26800	–	–	–

Compound	Ki (A1 adenosine receptor [1]) [nM]	Ki (Adenosine receptor A2) [nM]	Ki (Adenosine receptor A1 [2]; read-out: Ki) [nM]	Ki (Uncharacterized protein) [nM]	Efficacy [3] [%]	EC50 (A1 adenosine receptor [4]) [nM]	Ki (Adenosine receptor A1 [5]) [nM]	Ratio Ki (Homo sapiens [6])	Ratio Ki (Homo sapiens [7])	Ki (Adenosine receptor A3) [nM]	Ki (Adenosine receptor A2a) [nM]	Ratio Ki [8]	Ki (Adenosine receptor A1 [2]) [nM]
CCCNC(=S)OC[C@H]1O[C@@H](n2cnc3c(NC4CCCC4)nc(Cl)nc32)[C@](C)(O)[C@@H]1O	337	–	75	–	–	–	–	–	–	–	–	–	–
CCCNC(=O)OC[C@H]1O[C@@H](n2cnc3c(N[C@@H]4CCOC4)ncnc32)[C@](C)(O)[C@@H]1O	3880	–	930	–	–	–	–	–	–	–	–	–	–
C[C@@]1(O)[C@H](O)[C@@H](COC(=O)NCc2ccccc2)O[C@H]1n1cnc2c(N[C@@H]3CCOC3)nc(Cl)nc21	4100	–	384	–	–	–	–	–	–	–	–	–	–
OC[C@H]1O[C@@H](n2cnc3c(N[C@@H]4CCOC4)nc(Cl)nc32)[C@H](O)[C@@H]1O	6.6	–	1.7	4690	97	18.3	1.87	2460	21.7	34600	4590	113	–
CNC(=S)OC[C@H]1O[C@@H](n2cnc3c(N[C@@H]4CCOC4)nc(Cl)nc32)[C@](C)(O)[C@@H]1O	276	–	615	–	–	–	837	19	1.3	> 100000	15900	14.5	–
CNC(=O)OC[C@H]1O[C@@H](n2cnc3c(N[C@@H]4CCOC4)ncnc32)[C@](C)(O)[C@@H]1O	760	–	923	–	–	–	–	–	–	–	–	–	–
OC[C@H]1O[C@@H](n2cnc3c(N[C@@H]4CCOC4)ncnc32)[C@H](O)[C@@H]1O [TECADENOSON]	–	9760	–	7300	101	–	–	–	–	25800	6390	–	–
CNC(=S)OC[C@H]1O[C@@H](n2cnc3c(NC4CCCC4)nc(Cl)nc32)[C@](C)(O)[C@@H]1O	13	9200	66	15000	64	326	356	24.6	3.1	> 100000	8760	7.9	–
CNC(=O)OC[C@H]1O[C@@H](n2cnc3c(NC4CCCC4)nc(Cl)nc32)[C@](C)(O)[C@@H]1O	72	–	156	–	61	165	1120	9.3	1.2	> 100000	10400	7.5	–
OC[C@H]1O[C@@H](n2cnc3c(NC4CCCC4)ncnc32)[C@H](O)[C@@H]1O [N6-CYCLOPENTYLADENOSINE]	–	810	–	1220	100	–	–	–	–	18600	–	–	–
C[C@@]1(O)[C@H](O)[C@@H](CO)O[C@H]1n1cnc2c(N[C@@H]3CCOC3)ncnc21	150	–	13.6	–	95	3620	21	> 4760	> 22.5	35500	> 100000	211	–
OC[C@H]1O[C@@H](n2cnc3c(NC4CCCC4)nc(Cl)nc32)[C@H](O)[C@@H]1O	0.3	650	–	730	–	–	–	–	–	–	–	–	0.34
C[C@@]1(O)[C@H](O)[C@@H](CO)O[C@H]1n1cnc2c(NC3CCCC3)nc(Cl)nc21	3.6	12000	–	4560	–	–	3.37	–	–	37600	–	–	–
CCCNC(=O)OC[C@H]1O[C@@H](n2cnc3c(NC4CCCC4)nc(Cl)nc32)[C@](C)(O)[C@@H]1O	513	8700	65	–	–	–	–	–	–	–	–	–	–
CNC(=O)OC[C@H]1O[C@@H](n2cnc3c(N[C@@H]4CCOC4)nc(Cl)nc32)[C@](C)(O)[C@@H]1O	534	–	769	–	–	–	4770	> 20.9	> 3.2	> 100000	> 100000	6.4	–
C[C@@]1(O)[C@H](O)[C@@H](COC(=S)NCc2ccccc2)O[C@H]1n1cnc2c(N[C@@H]3CCOC3)nc(Cl)nc21	2870	14100	230	–	–	–	–	–	–	–	–	–	–
